Source: patent US12685726B2, “Sulfoximines as inhibitors of NaV1.8” (Gruenenthal GmbH, priority 2022, dated 2026)

Target: T1, human NaV 1.8 (Homo sapiens, UniProt Q9Y5Y9)
T1 construct: expressed in transfected cells; host or cells: HEK (recombinant cell line)
Assay: Automated whole-cell patch clamp (Qube384) voltage-clamp recordings of sodium currents in HEK-NaV1.8 cell line
Type: cell-based
Conditions: read-out: Potency category (human NaV 1.8 IC50)
Outline: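 HEK cells expressing NaV1.8 with b3, whole-cell automated voltage clamp at room temperature or 19° C.; CsF-based internal, pH 7.4 external. State-dependent (−120 mV, V1/2 4 s, −10 mV test pulses) and 10/20 Hz 40-pulse protocols; ~12 min compound, vehicle-corrected, IC50 by 4-parameter logistic fit.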

T1 sequence (Q9Y5Y9 whole entry): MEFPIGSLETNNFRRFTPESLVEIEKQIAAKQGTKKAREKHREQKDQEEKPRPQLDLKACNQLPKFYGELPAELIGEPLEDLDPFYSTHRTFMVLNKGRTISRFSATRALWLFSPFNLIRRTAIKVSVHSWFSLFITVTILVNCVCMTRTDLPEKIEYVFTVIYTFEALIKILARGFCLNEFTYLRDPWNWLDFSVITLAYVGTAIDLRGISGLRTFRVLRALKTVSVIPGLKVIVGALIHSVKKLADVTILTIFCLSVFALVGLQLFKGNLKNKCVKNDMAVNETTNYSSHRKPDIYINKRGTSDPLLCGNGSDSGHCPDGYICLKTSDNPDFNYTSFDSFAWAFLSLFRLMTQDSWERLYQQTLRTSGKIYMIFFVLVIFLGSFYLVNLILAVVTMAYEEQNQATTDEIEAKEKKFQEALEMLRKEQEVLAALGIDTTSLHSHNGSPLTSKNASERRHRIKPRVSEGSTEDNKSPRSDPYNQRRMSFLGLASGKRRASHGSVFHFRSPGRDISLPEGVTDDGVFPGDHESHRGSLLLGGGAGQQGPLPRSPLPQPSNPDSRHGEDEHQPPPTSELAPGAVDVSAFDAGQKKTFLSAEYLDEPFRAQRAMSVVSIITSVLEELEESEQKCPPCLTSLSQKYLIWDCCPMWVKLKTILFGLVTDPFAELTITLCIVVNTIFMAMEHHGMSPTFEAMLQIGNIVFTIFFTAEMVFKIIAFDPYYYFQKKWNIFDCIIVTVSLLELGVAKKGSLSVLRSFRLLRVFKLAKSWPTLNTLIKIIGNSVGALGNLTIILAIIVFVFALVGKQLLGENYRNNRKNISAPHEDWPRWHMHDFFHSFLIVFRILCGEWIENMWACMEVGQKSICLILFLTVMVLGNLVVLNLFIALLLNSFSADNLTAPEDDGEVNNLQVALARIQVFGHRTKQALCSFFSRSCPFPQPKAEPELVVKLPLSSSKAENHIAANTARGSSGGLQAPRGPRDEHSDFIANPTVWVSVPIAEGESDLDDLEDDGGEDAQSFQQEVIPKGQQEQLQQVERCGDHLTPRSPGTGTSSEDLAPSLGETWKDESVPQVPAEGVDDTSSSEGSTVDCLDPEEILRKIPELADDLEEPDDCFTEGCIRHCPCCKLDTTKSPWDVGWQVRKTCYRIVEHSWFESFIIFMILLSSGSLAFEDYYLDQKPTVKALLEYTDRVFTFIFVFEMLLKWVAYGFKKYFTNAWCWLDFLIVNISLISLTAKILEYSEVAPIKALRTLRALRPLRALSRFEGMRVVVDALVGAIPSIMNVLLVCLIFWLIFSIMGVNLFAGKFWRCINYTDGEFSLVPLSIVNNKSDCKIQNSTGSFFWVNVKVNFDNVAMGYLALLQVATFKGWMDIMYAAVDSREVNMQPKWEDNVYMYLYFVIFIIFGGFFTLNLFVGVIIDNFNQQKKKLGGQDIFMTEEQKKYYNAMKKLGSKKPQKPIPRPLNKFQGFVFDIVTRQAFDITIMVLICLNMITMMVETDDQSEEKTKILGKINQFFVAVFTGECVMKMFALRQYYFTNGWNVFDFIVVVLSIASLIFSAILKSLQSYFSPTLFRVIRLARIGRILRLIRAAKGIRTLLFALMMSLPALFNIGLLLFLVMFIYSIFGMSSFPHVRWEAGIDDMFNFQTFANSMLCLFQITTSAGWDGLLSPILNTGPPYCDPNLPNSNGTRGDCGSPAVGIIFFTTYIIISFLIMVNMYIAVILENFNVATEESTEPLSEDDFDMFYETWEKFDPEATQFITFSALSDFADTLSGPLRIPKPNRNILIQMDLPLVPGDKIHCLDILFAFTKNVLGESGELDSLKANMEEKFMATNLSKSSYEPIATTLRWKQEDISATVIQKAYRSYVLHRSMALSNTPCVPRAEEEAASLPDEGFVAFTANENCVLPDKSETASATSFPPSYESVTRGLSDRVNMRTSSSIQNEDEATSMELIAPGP

| Compound | IC50 |
| --- | --- |
| CC1(Cn2nc(C34CC(F)(C3)C4)c(C(F)(F)F)c2C(=O)Nc2ccc(F)c(S(C)(=N)=O)c2)CC(F)(F)C1 (single isomer, unassigned) [Example 141b, 1-((3,3-Difluoro-1-methylcyclobutyl)methyl)-N-(4-fluoro-3-(S-methylsulfonimidoyl)phenyl)-3-(3-fluorobicyclo[1.1.1]pentan-1-yl)-4-(trifluoromethyl)-1H-pyrazole-5-carboxamide] | ≤ 0.1 µM |
| CC1(Cn2nc(C3(F)CC3)c(C(F)(F)F)c2C(=O)Nc2cccc(S(C)(=O)=NC(=O)C3COC3)c2)CC(F)(F)C1 (single isomer, unassigned) [Example 150a, 1-((3,3-Difluoro-1-methylcyclobutyl)methyl)-3-(1-fluorocyclopropyl)-N-(3-(S-methyl-N-(oxetane-3-carbonyl)sulfonimidoyl)phenyl)-4-(trifluoromethyl)-1H-pyrazole-5-carboxamide] | ≤ 0.1 µM |
| CS(=N)(=O)c1cc(NC(=O)c2c(C(F)(F)F)c(C3CC3)nn2CC2C3(CC3)C23CC3)ccn1 (single isomer, unassigned) [Example 80a, 3-cyclopropyl-1-(dispiro[2.0.24.13]heptan-7-ylmethyl)-N-(2-(S-methylsulfonimidoyl)pyridin-4-yl)-4-(trifluoromethyl)-1H-pyrazole-5-carboxamide] | ≤ 0.1 µM |
| CC1(Cn2nc(C34CC(F)(C3)C4)c(C(F)F)c2C(=O)Nc2cccc(S(C)(=N)=O)c2)CC(F)(F)C1 (single isomer, unassigned) [Example 113a, 1-((3,3-Difluoro-1-methylcyclobutyl)methyl)-4-(difluoromethyl)-3-(3-fluorobicyclo[1.1.1]pentan-1-yl)-N-(3-(S-methylsulfonimidoyl)phenyl)-1H-pyrazole-5-carboxamide] | ≤ 0.1 µM |
| Cc1c(C(C)(F)F)nn(C[C@H]2C[C@@H](C(F)(F)F)C2)c1C(=O)Nc1ccnc(S(C)(=N)=O)c1 (single isomer, unassigned) [Example 31b, 3-(1,1-difluoroethyl)-4-methyl-N-(2-(S-methylsulfonimidoyl)pyridin-4-yl)-1-(((cis)-3-(trifluoromethyl)cyclobutyl)methyl)-1H-pyrazole-5-carboxamide] | ≤ 0.1 µM |
| C[S@](=N)(=O)c1cc(NC(=O)c2c(C(F)(F)F)c(C3CC3)nn2C[C@@H]2C(F)(F)C23CC3)ccn1 (single isomer, unassigned) [Example 79d, 3-cyclopropyl-1-((2,2-difluorospiro[2.2]pentan-1-yl)methyl)-N-(2-(S-methylsulfonimidoyl)pyridin-4-yl)-4-(trifluoromethyl)-1H-pyrazole-5-carboxamide] | ≤ 0.1 µM |
| CC(F)(F)c1nn(CC2CC(F)(F)C2)c(C(=O)Nc2ccnc(S(C)(=N)=O)c2)c1C(F)(F)F (stereo not drawn) [Example 3, 1-((3,3-Difluorocyclobutyl)methyl)-3-(1,1-difluoroethyl)-N-(2-(S-methylsulfonimidoyl)pyridin-4-yl)-4-(trifluoromethyl)-1H-pyrazole-5-carboxamide] | ≤ 0.1 µM |
| CS(=N)(=O)c1cc(NC(=O)c2c(C(F)(F)F)c(C3CC3)nn2C[C@H]2CCC(F)(F)C2)ccn1 (single isomer, unassigned) [Example 17a] | ≤ 0.1 µM |

The next lines start with the values.

| IC50 | Compound |
| --- | --- |
| ≤ 0.1 µM | CC1(Cn2nc(C3(C#N)CC3)c(C(F)(F)F)c2C(=O)Nc2ccnc(S(C)(=N)=O)c2)CC(F)(F)C1 (single isomer, unassigned) [Example 68a, 3-(1-cyanocyclopropyl)-1-((3,3-difluoro-1-methylcyclobutyl)methyl)-N-(2-(S-methylsulfonimidoyl)pyridin-4-yl)-4-(trifluoromethyl)-1H-pyrazole-5-carboxamide] |
| ≤ 0.1 µM | CC1(Cn2nc(C3CC3(F)F)c(C(F)(F)F)c2C(=O)Nc2ccnc(S(C)(=N)=O)c2)CC(F)(F)C1 (single isomer, unassigned) [Example 63a, 1-((3,3-Difluoro-1-methylcyclobutyl)methyl)-3-(2,2-difluorocyclopropyl)-N-(2-(S-methylsulfonimidoyl)pyridin-4-yl)-4-(trifluoromethyl)-1H-pyrazole-5-carboxamide] |
| ≤ 0.1 µM | CC1(Cn2nc(C34CC(F)(C3)C4)c(C(F)(F)F)c2C(=O)Nc2ccnc(S(C)(=N)=O)c2)CC(F)(F)C1 (single isomer, unassigned) [Example 110b, 1-((3,3-Difluoro-1-methylcyclobutyl)methyl)-3-(3-fluorobicyclo[1.1.1]pentan-1-yl)-N-(2-(S-methylsulfonimidoyl)pyridin-4-yl)-4-(trifluoromethyl)-1H-pyrazole-5-carboxamide] |
| ≤ 0.1 µM | CC1(Cn2nc(C3CCCC3)c(C(F)(F)F)c2C(=O)Nc2ccnc(S(C)(=N)=O)c2)CC(F)(F)C1 (single isomer, unassigned) [Example 59b, 3-Cyclopentyl-1-((3,3-difluoro-1-methylcyclobutyl)methyl)-N-(2-(S-methylsulfonimidoyl)pyridin-4-yl)-4-(trifluoromethyl)-1H-pyrazole-5-carboxamide] |
| ≤ 0.1 µM | Cc1c(C(C)(F)F)nn(CC2(C)CC(F)(F)C2)c1C(=O)Nc1ccnc(S(C)(=N)=O)c1 (single isomer, unassigned) [Example 5a, 1-((3,3-difluoro-1-methylcyclobutyl)methyl)-3-(1,1-difluoroethyl)-4-methyl-N-(2-(S-methylsulfonimidoyl)pyridin-4-yl)-1H-pyrazole-5-carboxamide] |
| ≤ 0.1 µM | CC1(Cn2nc(C3CC3)c(C(F)(F)F)c2C(=O)Nc2ccnc(S(C)(=N)=O)c2)CC(F)(F)C1 (single isomer, unassigned) [Example 1b, 3-cyclopropyl-1-((3,3-difluoro-1-methylcyclobutyl)methyl)-N-(2-(S-methylsulfonimidoyl)pyridin-4-yl)-4-(trifluoromethyl)-1H-pyrazole-5-carboxamide] |
| ≤ 0.1 µM | CN=S(C)(=O)c1cc(NC(=O)c2c(C)c(C(C)(F)F)nn2CC2(C)CC(F)(F)C2)ccn1 (single isomer, unassigned) [Example 34a, 1-((3,3-Difluoro-1-methylcyclobutyl)methyl)-3-(1,1-difluoroethyl)-N-(2-(N,S-dimethylsulfonimidoyl)pyridin-4-yl)-4-methyl-1H-pyrazole-5-carboxamide] |
